The text below walks through data of patent publication US20240425483A1, “INDOLINES AS PROTAC COMPOUNDS” (NeoPhore Limited, priority 2021, published 2024).

Some results are limits rather than exact numbers.

For the test, the target named is T1, PMS2 protein (Homo sapiens, UniProt P54278).
T1 construct: host or cells: SW620 human colorectal carcinoma cells
T1 sequence (P54278 1-862): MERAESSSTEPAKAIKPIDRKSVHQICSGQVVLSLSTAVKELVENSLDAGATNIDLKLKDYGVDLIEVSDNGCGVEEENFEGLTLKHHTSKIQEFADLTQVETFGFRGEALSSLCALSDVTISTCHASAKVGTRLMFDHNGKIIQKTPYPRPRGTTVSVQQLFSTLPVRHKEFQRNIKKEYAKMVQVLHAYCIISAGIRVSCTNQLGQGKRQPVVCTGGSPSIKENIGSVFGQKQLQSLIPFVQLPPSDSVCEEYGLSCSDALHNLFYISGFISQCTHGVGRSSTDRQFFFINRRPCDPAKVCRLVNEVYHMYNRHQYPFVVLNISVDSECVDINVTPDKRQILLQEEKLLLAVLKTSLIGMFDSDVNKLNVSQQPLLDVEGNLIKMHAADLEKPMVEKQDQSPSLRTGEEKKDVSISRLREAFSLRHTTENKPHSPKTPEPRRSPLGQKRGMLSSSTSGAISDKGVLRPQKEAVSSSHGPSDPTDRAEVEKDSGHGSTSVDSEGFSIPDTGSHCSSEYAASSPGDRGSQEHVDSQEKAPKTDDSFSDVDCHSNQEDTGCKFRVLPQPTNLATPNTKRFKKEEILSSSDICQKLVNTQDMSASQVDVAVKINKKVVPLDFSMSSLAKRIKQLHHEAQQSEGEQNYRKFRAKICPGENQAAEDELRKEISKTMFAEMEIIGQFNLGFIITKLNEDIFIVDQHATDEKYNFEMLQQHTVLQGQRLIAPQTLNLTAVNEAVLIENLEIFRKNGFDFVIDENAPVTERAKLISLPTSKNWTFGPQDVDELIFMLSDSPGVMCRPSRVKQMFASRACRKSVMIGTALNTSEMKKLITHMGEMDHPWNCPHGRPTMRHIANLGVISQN
Nature of the test: PROTAC screening in SW620 human colorectal carcinoma cells, PMS2 protein level by JESS Western blot. The following applies: SW-620, 24 h, 1 uM compound, normalised to actin and DMSO control, Table A1. In kind it is cell-based. The procedure: PROTAC Screening Protocol Using SW620 Human Colorectal Carcinoma Cells
SVW620 cells (ATCC/[…]) were cultured in T75 Falcon flasks in culture media (F12/DMEM 1:1 media, 10% FCS, +L-G supplement). Cells were split twice a week, for a maximum of 6 weeks. Media was aspirated, and cells washed with 10 mL of sterile PBS. PBS was aspirated, and cells incubated with 1.5 mL TrypLE for up to 5 minutes at 37° C., 5% CO2. Once cells had detached, TrypLE was neutralised with 10 mL culture media and cells mixed 1:1 with Trypan blue and quantified using a Luna cell counter. Cells were then seeded into fresh T75 flasks with 1×10^6 cells and 10 mL culture media.
SW620 cells, cultured and counted as above, were used to seed 12 well plates at a density of 1.5×10^5 cells/well and incubated overnight at 37° C., 5% CO2. Test compounds were solubilized in DMSO to a stock concentration of 10 mM and serially diluted in DMSO and media to their test concentration; the final concentration of DMSO was 0.1% (v/v). Each concentration was tested in triplicate. SW620 cells were incubated with test compound for 24 hours at 37° C., 5% CO2. Media was aspirated from each well, and each well washed with 1 mL ice cold PBS. PBS was then aspirated, and 50 μL of cold lysis buffer (RIPA buffer supplemented with 1× protease inhibitors, Benzonase, MgCl) was added to each well; plates were then incubated on ice for 5 minutes. Cells were scraped using a pipette tip before being transferred to a fresh Eppendorf. Samples were spun at maximum speed in a benchtop centrifuge for 5 minutes at 4° C. and supernatant was then transferred to fresh tubes. Samples were stored at −80° C. until analysis.
Bicinchonininic acid (BCA) protein assay standards (2-0.125 mg/mL BSA) were prepared in advance. 6 μL of each standard was pipetted in duplicate into rows A and B of a 384-well assay plate. Test samples were diluted in lysis buffer (1:3-1:10) in a 384-well plate in duplicate. BCA Reagents were combined 50:1, Part A:Part B and 50 μL added to each well. Plates were incubated for 30 min at 37° C. in a plate incubator and read using a BCA protein 384 protocol on an EnSpire plate reader. Protein concentrations were calculated from a standard curve.
JESS Western Blot Protocol
Protein lysates were prepared using Protein Simple EZ standard pack reagents: 40 μL distilled H2O was added to a DTT tube (clear) and treated with 20 μL 10× sample buffer and 20 μL DTT to 5×MM tube (pink). 20 μL dH2O was added to biotinylated ladder tube (green).
Test samples were prepared by dilution to the required concentration (0.1 mg/mL) in 0.1× sample buffer. 1.25 μL 5× fluorescent master mix from the EZ standard pack was added to 5 μL sample for each lane to be loaded (e.g. 2.5 μL+10 μL if loading same sample into 2 wells). Samples were vortexed, briefly spun down and heated at 95° C. for 5 min in a PCR machine then vortexed again and briefly spun down before loading onto JESS cassettes (catalogue No: SM-W004) according to manufacturer's instructions (https://www.proteinsimple.com/technical_library.html?product=simplewestern&def_list=list). Protein expression was determined by the peak area of the target protein signal. Peak area of the target protein was normalised to peak area of the loading control (actin) and to DMSO control.
Background: A western blot detects proteins with antibodies after separation by electrophoresis.
Regarding `Cc1c(O)cc(O)c(C(=O)N2Cc3ccc(CN4CCN(CCOCCOCCOCCNc5ccc6c(c5)C(=O)N(C5CCC(=O)NC5=O)C6=O)CC4)cc3C2)c1OCc1ccccc1` (stereo not drawn) [Example 13, 5-((2-(2-(2-(2-(4-((2-(2-(Benzyloxy)-4,6-dihydroxy-3-methylbenzoyl)isoindolin-5-yl)methyl)piperazin-1-yl)ethoxy)ethoxy)ethoxy)ethyl)amino)-2-(2,6-dioxopiperidin-3-yl)isoindoline-1,3-dione], the remaining activity (usually the share of the control activity or signal that is left under treatment) at 1 µM was 10 to 25%.
The same measure for `Cc1c(O)cc(O)c(C(=O)N2Cc3ccc(CN4CCN(CCOCCOCCOCCOc5cccc6c5CN(C5CCC(=O)NC5=O)C6=O)CC4)cc3C2)c1OCc1ccccc1` (stereo not drawn) [Example 14, 3-(4-(2-(2-(2-(2-(4-((2-(2-(Benzyloxy)-4,6-dihydroxy-3-methylbenzoyl)isoindolin-5-yl)methyl)piperazin-1-yl)ethoxy)ethoxy)ethoxy)ethoxy)-1-oxoisoindolin-2-yl)piperidine-2,6-dione]: 10 to 25%.
The same measure for `Cc1c(O)cc(O)c(C(=O)N2Cc3ccc(CN4CCN(CCOCCOCCOCCNc5cccc6c5CN(C5CCC(=O)NC5=O)C6=O)CC4)cc3C2)c1OCc1ccccc1` (stereo not drawn) [Example 15, 3-(4-((2-(2-(2-(2-(4-((2-(2-(Benzyloxy)-4,6-dihydroxy-3-methylbenzoyl)isoindolin-5-yl)methyl)piperazin-1-yl)ethoxy)ethoxy)ethoxy)ethyl)amino)-1-oxoisoindolin-2-yl)piperidine-2,6-dione]: 10 to 25%.
Then `Cc1c(O)cc(O)c(C(=O)N2Cc3ccc(CN4CCN(CCOCCOCCOCCNc5ccc6c(c5)CN(C5CCC(=O)NC5=O)C6=O)CC4)cc3C2)c1OCc1ccccc1` (stereo not drawn) [Example 16, 3-(5-((2-(2-(2-(2-(4-((2-(2-(Benzyloxy)-4,6-dihydroxy-3-methylbenzoyl)isoindolin-5-yl)methyl)piperazin-1-yl)ethoxy)ethoxy)ethoxy)ethyl)amino)-1-oxoisoindolin-2-yl)piperidine-2,6-dione], with 25 to 50%; and `Cc1c(O)cc(O)c(C(=O)N2Cc3ccc(CN4CCN(CCOCCOCCOCCNc5cccc6c5CN(C5CCC(=O)NC5=O)C6=O)CC4)cc3C2)c1OCC1CCCCC1` (stereo not drawn) [Example 17, 3-(4-((2-(2-(2-(2-(4-((2-(2-(Cyclohexylmethoxy)-4,6-dihydroxy-3-methylbenzoyl)isoindolin-5-yl)methyl)piperazin-1-yl)ethoxy)ethoxy)ethoxy)ethyl)amino)-1-oxoisoindolin-2-yl)piperidine-2,6-dione], with 10 to 25%; and `Cc1c(O)cc(O)c(C(=O)N2Cc3ccc(C(=O)N4CCC(OCCOCCOCCN5CCN(c6cc7c(cc6F)C(=O)N(C6CCC(=O)NC6=O)C7=O)CC5)CC4)cc3C2)c1OCc1ccccc1` (stereo not drawn) [Example 18, 5-(4-(2-(2-(2-((1-(2-(2-(Benzyloxy)-4,6-dihydroxy-3-methylbenzoyl)isoindoline-5-carbonyl)piperidin-4-yl)oxy)ethoxy)ethoxy)ethyl)piperazin-1-yl)-2-(2,6-dioxopiperidin-3-yl)-6-fluoroisoindoline-1,3-dione], with 25 to 50%.
In turn, `Cc1c(O)cc(O)c(C(=O)N2Cc3ccc(CN4CCN(CCOCCOCCOCCOCCNc5ccc6c(c5)C(=O)N(C5CCC(=O)NC5=O)C6=O)CC4)cc3C2)c1OCc1ccccc1` (stereo not drawn) [Example 19, 5-[2-[2-[2-[2-[2-[4-[[2-(2-Benzyloxy-4,6-dihydroxy-3-methyl-benzoyl)isoindolin-5-yl]methyl]piperazin-1-yl]ethoxy]ethoxy]ethoxy]ethoxy]ethylamino]-2-(2,6-dioxo-3-piperidyl)isoindoline-1,3-dione] had a remaining activity at 1 µM below 10%.
Compound `Cc1c(O)cc(O)c(C(=O)N2Cc3ccc(CN4CCC(CC(=O)N5CCN(c6ccc7c(c6)CN(C6CCC(=O)NC6=O)C7=O)CC5)CC4)cc3C2)c1OCC1CCCCC1` (stereo not drawn) [Example 20, 3-(5-(4-(2-(1-((2-(2-(Cyclohexylmethoxy)-4,6-dihydroxy-3-methylbenzoyl)isoindolin-5-yl)methyl)piperidin-4-yl)acetyl)piperazin-1-yl)-1-oxoisoindolin-2-yl)piperidine-2,6-dione] gave a remaining activity at 1 µM of 10 to 25%.
Then `Cc1c(O)cc(O)c(C(=O)N2Cc3ccc(CN4CCC(C(=O)N5CCN(c6ccc7c(c6)CN(C6CCC(=O)NC6=O)C7=O)CC5)CC4)cc3C2)c1OCC1CCCCC1` (stereo not drawn) [Example 21, 3-(5-(4-(1-((2-(2-(cyclohexylmethoxy)-4,6-dihydroxy-3-methylbenzoyl)isoindolin-5-yl)methyl)piperidine-4-carbonyl)piperazin-1-yl)-1-oxoisoindolin-2-yl)piperidine-2,6-dione], with 10 to 25%; and `Cc1c(O)cc(O)c(C(=O)N2Cc3ccc(C(=O)N4CCC(CN5CCN(c6ccc7c(c6)CN(C6CCC(=O)NC6=O)C7=O)CC5)CC4)cc3C2)c1OCc1ccccc1` (stereo not drawn) [Example 22, 3-(5-(4-((1-(2-(2-(Benzyloxy)-4,6-dihydroxy-3-methylbenzoyl)isoindoline-5-carbonyl)piperidin-4-yl)methyl)piperazin-1-yl)-1-oxoisoindolin-2-yl)piperidine-2,6-dione], with 10 to 25%.
The same measure for `Cc1c(O)cc(O)c(C(=O)N2Cc3ccc(C(=O)N4CCC(CN5CCN(c6cc7c(cc6F)C(=O)N(C6CCC(=O)NC6=O)C7=O)CC5)CC4)cc3C2)c1OCc1ccccc1` (stereo not drawn) [Example 23, 5-(4-((1-(2-(2-(Benzyloxy)-4,6-dihydroxy-3-methylbenzoyl)isoindoline-5-carbonyl)piperidin-4-yl)methyl)piperazin-1-yl)-2-(2,6-dioxopiperidin-3-yl)-6-fluoroisoindoline-1,3-dione]: 10 to 25%; for `Cc1ncsc1-c1ccc(CNC(=O)[C@@H]2C[C@@H](O)CN2C(=O)[C@@H](NC(=O)CCCCCCCCCC(=O)N2CCN(Cc3ccc4c(c3)CN(C(=O)c3c(O)cc(O)c(C)c3OCc3ccccc3)C4)CC2)C(C)(C)C)cc1` [Example 24, (2S,4R)-1-((S)-2-(11-(4-((2-(2-(Benzyloxy)-4,6-dihydroxy-3-methylbenzoyl)isoindolin-5-yl)methyl)piperazin-1-yl)-11-oxoundecanamino)-3,3-dimethylbutanoyl)-4-hydroxy-N-(4-(4-methylthiazol-5-yl)benzyl) pyrrolidine-2-carboxamide]: below 10%.
